How the values were obtained:
Assay in all cases: relative viability (nuclei count vs DMSO), 5 days (fraction); higher = more cells survive
Apatinib + Olaparib = compound: N#CC1(c2ccc(NC(=O)c3cccnc3NCc3ccncc3)cc2)CCCC1 [Apatinib] + O=C(c1cc(Cc2n[nH]c(=O)c3ccccc23)ccc1F)N1CCN(C(=O)C2CC2)CC1 [Olaparib] (partner 8 µM)
Outline: (§1)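 Each reported value is a median over duplicate plates. It expresses relative viability: treated-well nuclei count divided by vehicle-well nuclei count. Lung cancer cell lines in 1536-well plates were dosed by pin tool a day after seeding, alone with one drug or with a fixed anchor-drug dose plus five library-drug doses (not always all listed) in √10 steps, and nuclei were counted after 5 days.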

Metformin + Luminespib = compound: CN(C)C(=N)NC(=N)N [Metformin] + CCNC(=O)c1noc(-c2cc(C(C)C)c(O)cc2O)c1-c1ccc(CN2CCOCC2)cc1 [Luminespib] (partner 0.01 µM)
Outline: as §1

Metformin + Trametinib = compound: CN(C)C(=N)NC(=N)N [Metformin] + CC(=O)Nc1cccc(-n2c(=O)n(C3CC3)c(=O)c3c(Nc4ccc(I)cc4F)n(C)c(=O)c(C)c32)c1 [Trametinib] (partner 0.02 µM)
Outline: as §1

Apatinib + Pictilisib = compound: N#CC1(c2ccc(NC(=O)c3cccnc3NCc3ccncc3)cc2)CCCC1 [Apatinib] + CS(=O)(=O)N1CCN(Cc2cc3nc(-c4cccc5[nH]ncc45)nc(N4CCOCC4)c3s2)CC1 [Pictilisib] (partner 1 µM)
Outline: as §1

| Cell Line | relative viability (Apatinib + Olaparib; first compound 0.08 µM) | relative viability (Apatinib + Olaparib; first compound 0.253 µM) | relative viability (Apatinib + Olaparib; first compound 0.8 µM) | relative viability (Apatinib + Olaparib; first compound 2.53 µM) | relative viability (Apatinib + Olaparib; first compound 8 µM) | relative viability (Metformin + Luminespib; first compound 10 µM) | relative viability (Metformin + Luminespib; first compound 31.62 µM) | relative viability (Metformin + Luminespib; first compound 100 µM) | relative viability (Metformin + Luminespib; first compound 316.23 µM) | relative viability (Metformin + Luminespib; first compound 1000 µM) | relative viability (Metformin + Trametinib; first compound 10 µM) | relative viability (Metformin + Trametinib; first compound 31.62 µM) | relative viability (Metformin + Trametinib; first compound 100 µM) | relative viability (Metformin + Trametinib; first compound 316.23 µM) | relative viability (Metformin + Trametinib; first compound 1000 µM) | relative viability (Apatinib + Pictilisib; first compound 0.08 µM) | relative viability (Apatinib + Pictilisib; first compound 0.253 µM) | relative viability (Apatinib + Pictilisib; first compound 0.8 µM) | relative viability (Apatinib + Pictilisib; first compound 2.53 µM) | relative viability (Apatinib + Pictilisib; first compound 8 µM) |
| --- | --- | --- | --- | --- | --- | --- | --- | --- | --- | --- | --- | --- | --- | --- | --- | --- | --- | --- | --- | --- |
| UMC-11 | 1.14 | 0.411 | 0.397 | 0.328 | 0.365 | 1.1 | 1.14 | 1.08 | 1.1 | 0.994 | 0.552 | 0.687 | 0.727 | 0.77 | 0.572 | 0.878 | 0.731 | 0.688 | 0.76 | 0.686 |
| PC-3 [JPC-3] | – | 1.12 | 0.983 | 1.1 | 1.06 | 0.686 | 0.68 | 0.73 | 0.663 | 0.74 | 0.683 | 0.717 | – | 0.706 | 0.68 | 0.781 | 0.741 | 0.594 | 0.605 | 0.683 |
| EKVX | 0.801 | 0.793 | 0.88 | 0.734 | 0.587 | 0.872 | 0.948 | 0.809 | – | 0.836 | – | 0.196 | 0.354 | 0.265 | 0.334 | 0.454 | 0.394 | 0.435 | 0.341 | 0.401 |
| HCC-827 | 0.68 | 0.628 | 0.644 | 0.54 | 0.561 | – | 0.843 | 0.843 | 0.524 | 0.736 | 0.575 | 0.567 | 0.616 | 0.577 | 0.605 | 1.04 | 0.867 | 0.806 | 0.777 | 1.01 |
| HCC-44 | 0.989 | 1 | 0.924 | 0.97 | 0.971 | 1.19 | 1.07 | 1.03 | 0.926 | 0.748 | – | 1.04 | 1.12 | 0.931 | 0.989 | 0.639 | 0.686 | 0.584 | 0.548 | 0.659 |
| NCI-H838 | 0.853 | 0.831 | 0.762 | 0.69 | 0.696 | 0.258 | 0.289 | 0.291 | 0.237 | 0.251 | 0.557 | 0.572 | 0.541 | 0.525 | 0.579 | 0.533 | 0.462 | 0.41 | 0.469 | 0.451 |
| NCI-H2126 | 0.973 | 0.861 | 0.88 | 0.845 | 0.904 | 0.647 | 0.956 | 0.803 | 0.571 | 0.496 | 0.517 | 0.538 | 0.563 | 0.504 | 0.587 | 0.52 | 0.398 | 0.473 | 0.505 | 0.479 |
| COR-L23 | 0.355 | 0.377 | 0.324 | 0.273 | 0.286 | 0.635 | 0.655 | 0.593 | 0.495 | 0.302 | 0.538 | 0.506 | 0.5 | 0.456 | 0.506 | 0.966 | 0.777 | 0.788 | 0.65 | 0.658 |
| NCI-H727 | 0.812 | – | 0.725 | 0.622 | 0.718 | 0.566 | 0.496 | 0.387 | – | 0.477 | 0.404 | 0.369 | 0.41 | – | 0.349 | 0.328 | 0.306 | 0.358 | 0.364 | 0.367 |
